This note sets out measurements from patent publication US11498903B2 (BRISTOL-MYERS SQUIBB COMPANY, priority 2017, dated 2022).

Broadly, the EC50 is the concentration giving half of the maximal effect.

SMILES strings stand for the structures. Read-outs that look alike come from different tables or passages of the source.

For this test, the target named is T1, human APJ receptor (Homo sapiens, UniProt P35414).
T1 construct: expressed in transfected cells
T1 sequence (P35414 1-380): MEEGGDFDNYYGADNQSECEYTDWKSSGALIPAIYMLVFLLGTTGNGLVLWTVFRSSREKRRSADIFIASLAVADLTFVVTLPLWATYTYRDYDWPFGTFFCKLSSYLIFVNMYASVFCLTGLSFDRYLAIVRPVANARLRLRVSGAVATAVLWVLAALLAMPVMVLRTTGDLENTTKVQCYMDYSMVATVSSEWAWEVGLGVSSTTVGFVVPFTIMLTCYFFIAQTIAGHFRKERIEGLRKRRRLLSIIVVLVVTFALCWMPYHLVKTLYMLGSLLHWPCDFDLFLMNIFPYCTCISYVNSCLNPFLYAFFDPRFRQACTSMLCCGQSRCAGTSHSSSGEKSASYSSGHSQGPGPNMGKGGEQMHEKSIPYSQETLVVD
Kind of test: Intracellular cAMP accumulation assay (APJ hcAMP, HTRF). In kind it is cell-based. How it is done: Intracellular cAMP Accumulation Assay
HEK293 cells stably expressing human APJ receptor were used to assess the activity of compounds. Cultured cells were detached and resuspended in the cAMP Homogeneous Time-Resolved Fluorescence (HTRF) assay buffer (Cisbio cat; #62AM4PEJ). The assay was performed in 384-well assay plates (Perkin-Elmer; cat #6008289) according to assay protocol provided by the manufacturer. Serial dilutions of a compound together with assay buffer containing […] IBMX and 2 μM forskolin were added to each well containing 5,000 cells and incubated for 30 minutes at room temperature. Subsequently, cAMP D2 reagent was added in the lysis buffer followed by the EuK antibody (Cisbio; cat #62AM4PEJ) and incubated for 60 min. The fluorescence emission ratio was measured using fluorometer. The intracellular cAMP concentrations (compound-stimulated inhibition of forskolin-mediated cAMP production) were calculated by extrapolation from a standard curve using known cAMP concentrations. The EC50 values were obtained by fitting the data to a sigmoidal concentration-response curve with variable slope. The maximal achievable inhibition of forskolin-induced cAMP levels (Ymax) for each compound was expressed as relative percentage of inhibition attained using pyroglutamated apelin-13 ((Pyrl)apelin-13) peptide, which was set to 100%.
The exemplified Examples disclosed below were tested in the APJ in vitro assays described above and were found having human APJ cyclic AMP (hcAMP) activity. Table 1 lists hcAMP EC50 values measured for the following examples. Ranges are as followε: A=0.0-10 nM; B=10.01-100 nM; C=101-500 nM.

[1] abbreviates: Table 1, HEK293 cells stably expressing human APJ receptor, inhibition of forskolin-mediated cAMP production, read-out: APJ hcAMP EC50.
Setting [2] is: human APJ, cAMP, potency range class, read-out: APJ cAMP Human EC50.
Setting [3] is: Table 3, HEK293 cells stably expressing human APJ receptor, read-out: APJ cAMP Human EC50.
The mark [4] stands for this setting: Table 2, HEK293 cells stably expressing human APJ receptor, read-out: APJ cAMP Human EC50.

With `CCCC(NC(=O)c1ccc(-c2c(Cl)cccc2-c2nc3ccccc3[nH]2)c(C(=O)O)c1)c1ccc(Cl)cc1OC` (single isomer, unassigned) [Example 164], the EC50 is, setting by setting: under setting [1], under 0.01 µM; under setting [2], under 0.01 µM.
In the case of `CCC[C@@H](NC(=O)c1ccc(-c2c(Cl)cccc2-c2nc3cnccc3[nH]2)c(C(=O)O)c1)c1ccccc1` (atropisomer, axis not shown) [Example 133, (S)-2′-chloro-6′-{1H-imidazo[4,5-c]pyridin-2-yl}-4-{[(1R)-1-phenylbutyl]carbamoyl}-[1,1′-biphenyl]-2-carboxylic acid], the EC50 under setting [3] was under 0.01 µM.
As to `COC[C@@H](NC(=O)c1ccc(-c2c(Cl)cccc2-c2nc3ccccc3[nH]2)c(C(=O)O)c1)c1ccccc1` (atropisomer, axis not shown) [Example 82, (S)-2′-(1H-benzo[d]imidazol-2-yl)-6′-chloro-4-(((S)-2-methoxy-1-phenylethyl)carbamoyl)-[1,1′-biphenyl]-2-carboxylic acid], the EC50 under setting [3] is 0.01 to 0.1 µM.
As for `CCCC(NC(=O)c1ccc(-c2c(Cl)cccc2-c2nc3ccccc3[nH]2)c(C(=O)O)c1)c1ccc(Cl)cc1OC` (single isomer, unassigned) [Example 166], the EC50 under setting [1] is under 0.01 µM.
In the case of `CCC[C@@H](NC(=O)c1ccc(-c2c(Cl)cccc2-c2nc3cc(OC)c(F)cc3[nH]2)c(C(=O)OC)c1)c1ccccc1` (atropisomer, axis not shown) [Example 83, methyl (S)-2′-chloro-6′-(6-fluoro-5-methoxy-1H-benzo[d]imidazol-2-yl)-4-(((R)-1-phenylbutyl)carbamoyl)-[1,1′-biphenyl]-2-carboxylate], the EC50 under setting [3] fell in the range of 0.01 to 0.1 µM.
For the compound `CCC[C@@H](NC(=O)c1ccc(-c2c(Cl)cccc2-c2nc3cc(OC(C)=O)ccc3[nH]2)c(C(=O)O)c1)c1ccccc1` (atropisomer, axis not shown) [Example 134, (S)-2′-[5-(acetyloxy)-1H-1,3-benzodiazol-2-yl]-6′-chloro-4-{[(1R)-1-phenylbutyl]carbamoyl}-[1,1′-biphenyl]-2-carboxylic acid], the EC50 reads like this: under setting [1], under 0.01 µM; under setting [3], under 0.01 µM.
On to `COc1cc2[nH]c(-c3cccc(Cl)c3-c3ccc(C(=O)NCC(C)C)cc3C(=O)O)nc2cc1F` [Example 121, (S)-2′-chloro-6′-(5-fluoro-6-methoxy-1H-1,3-benzodiazol-2-yl)-4-[(2-methylpropyl)carbamoyl [1,1′-biphenyl]-2-carboxylic acid], for which the EC50 by setting is: under setting [1], 0.01 to 0.1 µM; under setting [3], 0.01 to 0.1 µM.
For the compound `CCCC(NC(=O)c1ccc(-c2c(Cl)cccc2-c2nc3ccccc3[nH]2)c(C(=O)O)c1)c1c(F)cccc1OC` (single isomer, unassigned) [Example 178], the EC50 under setting [1] was under 0.01 µM and the concentration for a half-maximal effect (EC50) under setting [2] was under 0.01 µM.
Turning to `CCC[C@@H](NC(=O)c1ccc(-c2cc(Cl)ccc2-c2nc3cc(C(=O)OC)ccc3[nH]2)c(C(=O)O)c1)c1ccccc1` [Example 21, 5′-chloro-2′-[5-(methoxycarbonyl)-1H-1,3-benzodiazol-2-yl]-4-{[(1R)-1-phenylbutyl]carbamoyl}-[1,1′-biphenyl]-2-carboxylic acid], the EC50 runs as follows: under setting [1], under 0.01 µM; under setting [4], under 0.01 µM.
For `CCC[C@@H](NC(=O)c1ccc(-c2cc(Cl)ccc2-c2nc3ccccc3[nH]2)c(C(=O)NS(=O)(=O)c2ccc(Cl)cc2)c1)c1ccccc1` [Example 45, 2′-(1H-1,3-benzodiazol-2-yl)-5′-chloro-N2-(4-chlorobenzenesulfonyl)-N4-[(1R)-1-phenylbutyl]-[1,1′-biphenyl]-2,4-dicarboxamide], the EC50 is, setting by setting: under setting [1], 0.101 to 0.5 µM; under setting [4], 0.101 to 0.5 µM.
As for `CCC[C@@H](NC(=O)c1ccc(-c2cc(Cl)ccc2-c2nc3ccccc3[nH]2)c(C(=O)NO)c1)c1ccccc1` [Example 42, 2′-(1H-1,3-benzodiazol-2-yl)-5′-chloro-N2-hydroxy-N4-[(1R)-1-phenylbutyl]-[1,1′-biphenyl]-2,4-dicarboxamide], the EC50 was in the range of 0.01 to 0.1 µM under setting [1] and 0.01 to 0.1 µM under setting [4].
Regarding `CCC[C@@H](NC(=O)c1ccc(-c2c(Cl)cccc2-c2nc3cccc(O)c3[nH]2)c(C(=O)O)c1)c1ccccc1` (atropisomer, axis not shown) [Example 92, (S)-2′-chloro-6′-(7-hydroxy-1H-1,3-benzodiazol-2-yl)-4-{[(1R)-1-phenlylbutyl]carbamoyl}-[1,1′-biphenyl]-2-carboxylic acid], the EC50 was under 0.01 µM under setting [1] and under 0.01 µM under setting [3].
Regarding `CCCC(NC(=O)c1ccc(-c2cc(Cl)ccc2-c2nc3ccccc3[nH]2)c(C(=O)O)c1)c1ccccc1OC` (centres unmarked) [Example 208, 2′-(1H-1,3-benzodiazol-2-yl)-5′-chloro-4-{[1-(2-methoxyphenyl)butyl]carbamoyl}-[1,1′-biphenyl]-2-carboxylic acid], the 50% effective concentration (EC50) under setting [1] is under 0.01 µM.
Take `CCC[C@@H](NC(=O)c1ccc(-c2c(Cl)cccc2-c2nc3cc(F)c(F)cc3[nH]2)c(C(=O)O)c1)c1ccccc1` (atropisomer, axis not shown) [Example 89, (S)-2′-chloro-6′-(5,6-difluoro-1H-1,3-benzodiazol-2-yl)-4-{[(1R)-1-phenylbutyl]carbamoyl}-[1,1′-biphenyl]-2-carboxylic acid]: the EC50 is, setting by setting: under setting [1], under 0.01 µM; under setting [3], under 0.01 µM.
Consider `CCC[C@@H](NC(=O)c1ccc(-c2cc(F)ccc2-c2nc3cc(C(C)(C)C)ccc3[nH]2)c(C(=O)O)c1)c1ccccc1` [Example 39, 2′-(5-tert-butyl-1H-1,3-benzodiazol-2-yl)-5′-fluoro-4-{[(1R)-1-phenylbutyl]carbamoyl}-[1,1′-biphenyl]-2-carboxylic acid], for which the EC50 reads like this: under setting [1], 0.01 to 0.1 µM; under setting [4], 0.01 to 0.1 µM.
For the compound `CCC[C@@H](NC(=O)c1ccc(-c2c(Cl)cccc2-c2nc3cc(Cl)cc(Cl)c3[nH]2)c(C(=O)O)c1)c1ccccc1` (atropisomer, axis not shown) [Example 94, (S)-2′-chloro-6′-(5,7-dichloro-1H-1,3-benzodiazol-2-yl)-4-{[(1R)-1-phenylbutyl]carbamoyl}-[1,1′-biphenyl]-2-carboxylic acid], the 50% effective concentration (EC50) runs as follows: under setting [1], under 0.01 µM; under setting [3], under 0.01 µM.
On to `CCC[C@@H](NC(=O)c1ccc(-c2c(Cl)cccc2-c2nc3cc(Cl)c(C)cc3[nH]2)c(C(=O)O)c1)c1ccccc1` (atropisomer, axis not shown) [Example 97, (S)-2′-chloro-6′-(5-chloro-6-methyl-1H-1,3-benzodiazol-2-yl)-4-{[(1R)-1-phenylbutyl]carbamoyl}-[1,1′-biphenyl]-2-carboxylic acid], for which, under setting [3], the EC50 lay in the range of 0.01 to 0.1 µM.
`COC[C@@H](NC(=O)c1ccc(-c2cc(Cl)ccc2-c2nc3ccccc3[nH]2)c(C(=O)O)c1)c1ccccc1` [Example 69, 2′-(1H-1,3-benzodiazol-2-yl)-5′-chloro-4-{[(1S)-2-methoxy-1-phenylethyl]carbamoyl}-[1,1′-biphenyl]-2-carboxylic acid]: the EC50 reads like this: under setting [1], under 0.01 µM; under setting [4], under 0.01 µM.
For the compound `COc1cccc([C@@H](C)NC(=O)c2ccc(-c3cc(Cl)ccc3-c3nc4ccccc4[nH]3)c(C(=O)O)c2)c1` [Example 74, 2′-(1H-1,3-benzodiazol-2-yl)-5′-chloro-4-{[(1R)-1-(3-methoxyphenyl)ethyl]carbamoyl}-[1,1′-biphenyl]-2-carboxylic acid], the EC50 reads like this: under setting [1], 0.01 to 0.1 µM; under setting [4], 0.01 to 0.1 µM.
For `CCCC(NC(=O)c1ccc(-c2c(Cl)cccc2-c2ncc(-c3cccnc3)[nH]2)c(C(=O)O)c1)c1ccccc1` [Example 101, (S)-2′-chloro-4-{[(1R)-1-phenylbutyl]carbamoyl}-6′-[5-(pyridin-3-yl)-1H-imidazol-2-yl]-[1,1′-biphenyl]-2-carboxylic acid], under setting [3], the EC50 was under 0.01 µM.
Turning to `CCC[C@@H](NC(=O)c1ccc(-c2cc(C(F)(F)F)ccc2-c2nc3cc(C(C)(C)C)ccc3[nH]2)c(C(=O)O)c1)c1ccccc1` [Example 60, 2′-(5-tert-butyl-1H-1,3-benzodiazol-2-yl)-4-{[(1R)-1-phenylbutyl]carbamoyl}-5′-(trifluoromethyl)-[1,1′-biphenyl]-2-carboxylic acid], the EC50 was under 0.01 µM under setting [1] and under 0.01 µM under setting [4].
